Reference: article PMC7997032, “Organic synthesis and anti-influenza A virus activity of cyclobakuchiols A, B, C, and D” (PLoS ONE, 2021)
“And” between values parts separate entries of the source, which are not always exact repeats. Identical values can stand only once.

Columns and labels:
Nrf2 = Nrf2 reporter assay (dual luciferase system) in MDCK cells; assay type: cell-based, canine; details: 12.5uM, relative to DMSO trans+
Procedure: An Nrf2 reporter assay based on the dual luciferase system was performed as previously described. The plasmid pNQO1-ARE (antioxidant response element)-Fluc, provided by Yamamoto M., expressed a Firefly luciferase gene driven by Nrf2 activation, while the plasmid pRL-TK-Rluc vector (Promega, CA, USA) expressed a Renilla luciferase gene driven by the herpes simplex viral thymidine kinase promoter as an internal control. MDCK cells were seeded in a 24-well plate at 1 × 10^5 cells/well and transfected with pNQO1-ARE-luc (0.25 μg) and pRL-TK-Rluc (0.25 μg). At 24 h post-transfection, the cells were treated with 12.5 μM cyclobakuchiols A–D in the infection medium at 37°C under 5% CO2. DMSO (0.125%) and 12.5 μM 1 were used as negative and positive controls, respectively. Total RNA was extracted from the MDCK cell lysates after 24 h of incubation. The levels of Firefly and Renilla luciferase mRNAs were analyzed by RT-qPCR and normalized to that of β-actin mRNA.

[1] = test system: NAD(P)H quinone oxidoreductase 1 (Nqo1); test: RT-qPCR of Nqo1 mRNA in MDCK cells with or without A/PR/8/34 virus; assay type: cell-based, canine; details: 12.5uM, MDCK, relative to virus - DMSO; for NQO1 Canis lupus mRNA, ave: ave of #1-3 exp; for NQO1 Canis lupus mRNA, individual replicates: replicates 1-3 of #1, #2, #3 exp, listed as Cyclobakuchiol C
A/PR/8/34 virus [2] = test: RT-qPCR of viral mRNAs (NP, NS1, PA, PB1, PB2, M2) in infected MDCK cells; assay type: cell-based, influenza A H1N1 virus
A/PR/8/34 virus [3] = test: Immunofluorescence staining of viral NP in influenza A virus-infected MDCK cells; details: for NP/DAPI (%) ave: average of 9 wells
A/WSN/33 virus [4] = test: as above; details: WSN
A/PR/8/34 virus [5] = test: Influenza A viral growth assay (viral titer of culture media); assay type: cell-based, influenza A H1N1 virus; parameters: viral titer of culture media, individual replicate / viral titer of culture media, ave: unit not given here; details: A/PR/8/34 (PR8), 12.5uM, average of #1-3 exp (n=9)
A/PR/8/34 virus [6] = assay type: cell-based; details: 12.5 μM, 24h WB
A/WSN/33 virus [7] = test: Influenza A viral growth assay (viral titer of culture media); assay type: cell-based, influenza A H1N1 virus; details: A/WSN/33 (WSN), 12.5uM, average of #1-3 exp (n=9)
[8] = test system: canine interferon-β (Ifn-β); test: RT-qPCR of Ifn-β mRNA in MDCK cells with or without A/PR/8/34 virus; assay type: cell-based; details: 12.5uM, relative to virus - DMSO; for MDCK IFN-b mRNA, ave: ave of #1-3 exp; for MDCK IFN-b mRNA, individual replicates: replicates 1-3 of #1, #2, #3 exp, listed as Cyclobakuchiol C
[9] = MDCK cells, PR8 virus, relative to DMSO (about 1), ave of #1-3 exp (9 values)
[10] = MDCK cells, PR8 virus, relative to DMSO, replicates 1-3 of #1, #2, #3 exp, listed as Cyclobakuchiol C
[11] = single experiment, listed as cyclo C

C=C[C@]1(C)CCC(C(C)(C)O)C(c2ccc(O)cc2)C1 (stereo in doubt) [cyclobakuchiol C]
pNQO1-ARE-Luc NRF2 reporter assay, ave (Nrf2; ave of #1-3 exp): 1.343 | pNQO1-ARE-Luc NRF2 reporter assay, individual replicates (Nrf2; two values each of #1, #2, #3 exp, listed as Cyclobakuchiol C): 1.496 and 1.13 and 1.492 and 1.034 and 1.043 and 1.865 | NQO1 Canis lupus mRNA, ave ([1]; virus + (PR8)): 1.3 | NQO1 Canis lupus mRNA, individual replicates ([1]; virus + (PR8)): 1.5721 and 1.53 and 1.546 and 1.742 and 0.864 and 0.8958 and 0.9507 and 1.371 and 1.2312 | NQO1 Canis lupus mRNA, ave ([1]; virus -): 1.195 | NQO1 Canis lupus mRNA, individual replicates ([1]; virus -): 1.246 and 1.375 and 1.298 and 1.334 and 1.006 and 1.078 and 1.116 and 1.24 and 1.059 | PR8 NP gene expression qPCR, ave (A/PR/8/34 virus [2]; MDCK PR8, NP mRNA, relative (DMSO about 1), average of #1-3 exp (n=9)): 0.0715 | PR8 NP gene expression qPCR, individual replicate (A/PR/8/34 virus [2]; MDCK PR8, NP mRNA, relative (DMSO about 1), replicates of #1-3 exp, listed as Cyclobakuchiol C): 0.02965 and 0.0515 and 0.04036 and 0.08601 and 0.1343 and 0.1201 and 0.1206 and 0.03078 and 0.03024 | PR8 NS1 gene expression qPCR, ave (A/PR/8/34 virus [2]; MDCK PR8, NS1 mRNA, relative (DMSO about 1), average of #1-3 exp (n=9)): 0.04238 | PR8 NS1 gene expression qPCR, individual replicate (A/PR/8/34 virus [2]; MDCK PR8, NS1 mRNA, relative (DMSO about 1), replicates of #1-3 exp, listed as Cyclobakuchiol C): 0.02453 and 0.03462 and 0.02897 and 0.02312 and 0.08062 and 0.06227 and 0.07687 and 0.03138 and 0.01906 | PR8 PA gene expression qPCR, ave (A/PR/8/34 virus [2]; MDCK PR8, PA mRNA, relative (DMSO about 1), average of #1-3 exp (n=9)): 0.04976 | PR8 PA gene expression qPCR, individual replicate (A/PR/8/34 virus [2]; MDCK PR8, PA mRNA, relative (DMSO about 1), replicates of #1-3 exp, listed as Cyclobakuchiol C): 0.02841 and 0.03504 and 0.0209 and 0.04366 and 0.1014 and 0.08076 and 0.0804 and 0.03232 and 0.02491 | PR8 M2 gene expression qPCR, ave (A/PR/8/34 virus [2]; [9]): 0.05203 | PR8 PB1 gene expression qPCR, ave (A/PR/8/34 virus [2]; [9]): 0.0394 | PR8 PB2 gene expression qPCR, ave (A/PR/8/34 virus [2]; [9]): 0.05178 | PR8 M2 gene expression qPCR, individual replicates (A/PR/8/34 virus [2]; [10]): 0.02539 and 0.04593 and 0.02488 and 0.06301 and 0.1078 and 0.07697 and 0.07009 and 0.03046 and 0.02377 | PR8 PB1 gene expression qPCR, individual replicates (A/PR/8/34 virus [2]; [10]): 0.02851 and 0.01826 and 0.01255 and 0.01866 and 0.09078 and 0.07015 and 0.07353 and 0.02182 and 0.02034 | PR8 PB2 gene expression qPCR, individual replicates (A/PR/8/34 virus [2]; [10]): 0.02749 and 0.04527 and 0.0229 and 0.05473 and 0.1042 and 0.07786 and 0.07787 and 0.03099 and 0.02468 | NP/DAPI (%) ave (A/PR/8/34 virus [3]; A/PR/8/34, 3.13 uM): 6.545% | NP/DAPI (%) ave (A/PR/8/34 virus [3]; A/PR/8/34, 6.25 uM): 2.732% | NP/DAPI (%) ave (A/PR/8/34 virus [3]; A/PR/8/34, 12.5 uM): 1.281% | NP/DAPI (%) ave (A/PR/8/34 virus [3]; A/PR/8/34, 25 uM): 1.024% | IC50 (A/PR/8/34 virus [3]; Influenza A virus, PR/8, MDCK, read-out: half maximal (50%) inhibitory concentration (IC50)): 4.6 ± 2.2 µM | NP/DAPI (%) ave (A/WSN/33 virus [4]; 3.13uM, ave of 9 values (3 exp)): 25.0115% | NP/DAPI (%) ave (A/WSN/33 virus [4]; 6.25uM, ave of 9 values (3 exp)): 26.7813% | NP/DAPI (%) ave (A/WSN/33 virus [4]; 12.5uM, ave of 9 values (3 exp)): 26.2263% | NP/DAPI (%) ave (A/WSN/33 virus [4]; 25uM, ave of 9 values (3 exp)): 34.9195% | NP/DAPI (%) ave (A/WSN/33 virus [4]; ave summary, 3.13%): 25.0115% | NP/DAPI (%) ave (A/WSN/33 virus [4]; ave summary, 6.25%): 26.7813% | NP/DAPI (%) ave (A/WSN/33 virus [4]; ave summary, 12.50%): 26.2263% | NP/DAPI (%) ave (A/WSN/33 virus [4]; ave summary, 25%): 34.9195% | viral titer of culture media, ave (A/PR/8/34 virus [5]; 12h): 33333.3 | viral titer of culture media, ave (A/PR/8/34 virus [5]; 24h): 52222.2 | viral titer of culture media, ave (A/PR/8/34 virus [5]; 48h): 37777.8 | viral titer of culture media, ave (A/PR/8/34 virus [5]; 72h): 43333.3 | NP/b-actin ave (A/PR/8/34 virus [6]; average of 3 experiments): 0.8052 | NS1/b-actin ave (A/PR/8/34 virus [6]; average of 3 experiments): 0.5534 | NP mean (western blot signal intensity, ImageJ) (A/PR/8/34 virus [6]; [11]): 91.764 and 95.052 and 111.845 | NP/b-actin (A/PR/8/34 virus [6]; [11]): 0.819 and 0.7 and 0.8964 | NS1/b-actin (A/PR/8/34 virus [6]; [11]): 0.4287 and 0.5327 and 0.6988 | NS1 mean (western blot signal intensity, ImageJ) (A/PR/8/34 virus [6]; [11]): 69.827 and 74.096 and 58.545 | viral titer of culture media, ave (A/WSN/33 virus [7]; 12h): 8288.89 | viral titer of culture media, ave (A/WSN/33 virus [7]; 24h): 21277778 | viral titer of culture media, ave (A/WSN/33 virus [7]; 48h): 246888889 | viral titer of culture media, ave (A/WSN/33 virus [7]; 72h): 155211111 | MDCK IFN-b mRNA, ave ([8]; virus +): 8.927 | MDCK IFN-b mRNA, individual replicates ([8]; virus +): 3.309 and 15.7023 and 10.0086 and 14.1468 and 10.7403 and 6.351 and 9.878 and 6.251 and 3.957 | MDCK IFN-b mRNA, ave ([8]; virus -): 1.684 | MDCK IFN-b mRNA, individual replicates ([8]; virus -): 0.8094 and 4.073 and 2.562 and 3.148 and 0.7696 and 1.281 and 1.389 and 0.8375 and 0.2824
